Measured values taken from patent US10946036B2, “Use of myostatin inhibitors and combination therapies” (Scholar Rock, Inc., priority 2016, dated 2021).
Entries after “also recorded” stand apart in the source; their conditions may differ. Where two headings read alike, the source gives them in different places. Each block holds one molecule with its values, some of them ahead of it.

Key:
Δ7 mice = details: 0.1 mg/kg/day from birth; cited from earlier work
[1] = test system: dexamethasone treated mice; assay: Dexamethasone-induced muscle atrophy in mice; type: in vivo, mouse
From the text: (§1) FIG. 2A and FIG. 2B provide a summary of dexamethasone-induced atrophy in mice: FIG. 2A illustrates the experimental model of single-dose SRK-015 treatment in healthy and atrophy-induced mice; FIG. 2B provides changes in gastrocnemius muscle weights measured at the indicated time points.
(§2) SRK-015 increased muscle mass in healthy animals and reduced muscle loss in a dexamethasone-induced model of atrophy. […] SRK-015 was also effective in preventing muscle loss upon dexamethasone treatment.

[2] = test system: preclinical models of SMA (mice); details: cited from earlier work; for blood brain barrier (BBB) crossing: mouse, in vivo; for SMN protein levels compared to vehicle: oral dosing, brain and muscle
[3] = in vivo; cited from earlier work
mature GDF-8 = mature GDF-8 (Homo sapiens, UniProt O14793); assay: Binding specificity: mature GDF-8
Protocol: In some embodiments, suitable dosage of SRK-015 for administration in human patients for the treatment of SMA ranges between 1 and 30 mg/kg, e.g., 1-5 mg/kg, 3-5 mg/kg, 3-10 mg/kg, 5-10 mg/kg, 5-15 mg/kg, 5-20 mg/kg, 10-20 mg/kg, etc. In some embodiments, the patient is administered SRK-015 once a week, once every two weeks, once every three weeks, once a month, once every six weeks, etc.

[4] = Pharmacokinetics in cynomolgus monkeys, ELISA; type: in vivo; details: for T1/2: post-dosing period
Protocol: (§3) SRK-015 PK properties were also determined in cynomolgus monkeys. Two- to three-year old male animals (average age 34 months) were administered weekly doses of 3 mg/kg or 30 mg/kg SRK-015 for 8 weeks. Following the last dose, animals were followed for an additional five weeks in the absence of drug administration. Samples from this post-dosing period were used to calculate PK parameters. […] Antibody levels were assessed by ELISA.

latent myostatin [5] = target: T1, latent myostatin (Macaca fascicularis, UniProt Q95J86); assay: Target engagement in cynomolgus serum, semi-quantitative western blot; type: in vivo, cynomolgus monkeys; details: 3 mg/kg or 30 mg/kg weekly
T1 construct: from tissue; host or cells: cynomolgus monkey serum
Protocol: (§4) At study termination animals were sacrificed five weeks after the last dose as described in above and muscle weights were determined. Gastrocnemius and Biceps brachii muscles (FIG. 10A and FIG. 10B, respectively) show increased mass following SRK-015 treatment. Gastrocnemius weights increased 21% in the 3 mg/kg groups, and 23% in the 30 mg/kg groups relative to vehicle control. * indicates statistically significant difference from vehicle by one-way ANOVA; P<0.007. Biceps brachii weights increased 18% in the 3 mg/kg groups, and 25% in the 30 mg/kg group relative to vehicle control. * indicates statistically significant difference from vehicle by one-way ANOVA; P<0.02. […] Serum samples were collected at the indicated study day and analyzed by semi-quantitative western blot analysis. Accumulation of latent myostatin, indicative of SRK-015 binding, is evident by day 8. Target continues to accumulate as additional doses are administered. Latent myostatin levels were quantified as described in Example 7 above. The effects of SRK-015 on muscle weight indicate that even at lower end of dosage (e.g., 3 mg/kg/week) SRK-015 is at or near the level of target engagement necessary for maximal efficacy.

latent myostatin [6] = target: T2, latent myostatin (Mus musculus, UniProt O08689); assay: Target engagement in serum and muscle of scid mice, western blot; type: in vivo; details: single 5 mg/kg dose
T2 construct: from tissue; host or cells: mouse serum and tibialis anterior muscle
Protocol: (§5) Male scid mice were administered a single 5 mg/kg IV dose of SRK-015. Separate cohorts of mice were sacrificed 4 hours, 2, 8, 15, 22, 29, and 56 days post dose, and serum and TA muscles collected for PK and target engagement assays. N=4 or 8 per group. SRK-015 levels were determined from serum samples taken at the indicated times after dosing. Analysis was performed using an anti-human IgG ELISA. The half-life of SRK-015 in scid mice at 5 mg/kg was ˜20.3 days.
(§6) Lean mass was measured with qNMR at the indicated timepoints after dosing. […] Target engagement was assessed by analyzing levels of latent myostatin in serum and muscle using western blot. Binding to SRK-015 results in accumulation of latent myostatin as the bound target assumes the half-life of the antibody and accumulates in circulation and in the target tissues. […] Samples from three mice from each cohort were analyzed.

cynomolgus monkeys = assay: Muscle weights in cynomolgus monkeys; type: in vivo
Protocol: as §3, §4

mature myostatin = mature myostatin (Homo sapiens, UniProt O14793); assay: Mature myostatin signaling in Smad2/3 reporter assay; type: cell-based
mouse proMyostatin = target: T3, mouse proMyostatin (Mus musculus, UniProt O08689); assay: proMyostatin activation reporter assay, mouse proMyostatin; type: cell-based
T3 construct: made in house; host or cells: mammalian expression system
From the text: (§7) Antibody SRK-015P (“P” for parental) was optimized to generate SRK-015, a fully human monoclonal antibody. SRK-015 differs from its parental clone by five residues in the variable domain outside the complementarity determining region. […] Both SRK-015 and SRK-015P had similar functional activity towards human and mouse proMyostatin in the reporter assay such that EC50 values for the two antibodies in proMyostatin activation assay using human and mouse proMyostatin, are similar. […] The ability of SRK-015 to bind the myostatin prodomain and to inhibit tolloid cleavage has been shown. Purified recombinant latent myostatin was incubated with TLL-2 tolloid protease in the presence of increasing concentrations of SRK-015. Samples were separated by reducing SDS-PAGE and probed by Western blot with an antibody that recognizes the myostatin prodomain.

scid mice = assay: Lean mass by qNMR in scid mice; type: in vivo, mouse; details: single 5 mg/kg dose
Protocol: as §5, §6

healthy male mice = assay: Muscle mass in healthy mice after single dose; type: in vivo, mouse; details: single 20 mg/kg dose, after 15 days
From the text: as §1, §2

Activin A = assay: Binding specificity: Activin A; details: any form
[7] = Pharmacokinetics in scid mice, anti-human IgG ELISA; type: in vivo, mouse; details: single 5 mg/kg IV dose, serum
Protocol: as §5

proGDF11 = proGDF11 (Homo sapiens, UniProt O95390); assay: Protease activity reporter assay using proGDF11 as substrate; type: cell-based
proMyostatin [8] = target: T4, proMyostatin (Homo sapiens, UniProt O14793); assay: proMyostatin activation assay, Smad2/3 luciferase reporter cell line; type: cell-based; details: proMyostatin incubated with furin and mTTL-2 proteases
T4 construct: made in house; host or cells: mammalian expression system
From the text: as §7

mature BMP9 = target: T5, mature BMP9 (Homo sapiens, UniProt Q9UK05); assay: Binding specificity: mature BMP9
T5 sequence (Q9UK05 320-429): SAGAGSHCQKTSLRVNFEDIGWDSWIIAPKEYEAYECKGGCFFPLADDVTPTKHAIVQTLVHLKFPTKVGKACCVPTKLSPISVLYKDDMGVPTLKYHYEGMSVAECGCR

mature BMP10 = target: T6, mature BMP10 (Homo sapiens, UniProt O95393); assay: Binding specificity: mature BMP10
T6 sequence (O95393 317-424): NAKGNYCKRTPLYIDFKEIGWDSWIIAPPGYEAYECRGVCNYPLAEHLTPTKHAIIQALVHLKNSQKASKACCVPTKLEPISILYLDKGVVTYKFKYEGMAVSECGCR

mature TGFβ1 = mature TGFβ1 (Homo sapiens, UniProt P01137); assay: Binding specificity: mature TGFβ1
murine proMyostatin = assay: Binding to murine proMyostatin; design: species or system mouse
latent myostatin [9] = target: T7, latent myostatin (Homo sapiens, UniProt O14793); assay: TLL-2 tolloid cleavage of latent myostatin, Western blot; type: biochemical; details: increasing antibody concentrations
T7 construct: Following cleavage, the growth factor and prodomain remain associated, forming a latent complex (latent myostatin)
From the text: as §7

GDF11 = assay: Binding specificity: GDF11; details: any form of GDF11
proMyostatin [10] = target: T4, proMyostatin; assay: proMyostatin activation reporter assay, human proMyostatin; type: cell-based
From the text: as §7

Type II SMA patients = details: cited from earlier work; for HFMSE score increase relative to placebo group: mean
SMA patients = details: human, in vivo; cited from earlier work
[11] = test system: infantile-onset SMA (type I) patients; details: cited from earlier work
[12] = 3 mg/kg weekly x8, five weeks after last dose
[13] = 30 mg/kg weekly x8, five weeks after last dose

proGDF11, sequence (O95390 299-407): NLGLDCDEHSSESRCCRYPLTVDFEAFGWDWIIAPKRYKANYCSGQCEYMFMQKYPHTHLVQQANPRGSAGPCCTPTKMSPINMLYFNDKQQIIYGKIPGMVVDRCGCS
mature TGFβ1, sequence (P01137 279-390 limits assumed): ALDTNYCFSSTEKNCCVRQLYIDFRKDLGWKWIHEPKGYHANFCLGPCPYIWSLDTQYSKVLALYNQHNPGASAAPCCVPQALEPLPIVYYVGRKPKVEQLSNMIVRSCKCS

Molecule: Cc1cn2cc(-c3cc4ccc(N5CCN(C)CC5)cc4c(=O)o3)nc2c(C)n1 [SMN-C1]
treated mice surviving to post-natal day (PND) 52 (Δ7 mice): 70%

Molecule: C[C@@H]1C[C@H]2[C@@H]3CCC4=CC(=O)C=C[C@]4(C)[C@@]3(F)[C@@H](O)C[C@]2(C)[C@@]1(O)C(=O)CO [dexamethasone, reference compound]
loss of muscle mass, IgG vehicle versus IgG Dex ([1]; chronic administration, by day 8): 16%

Molecule: CCN1CCC(c2cc(C)c3nc(-c4cc5c(C)nc(C)cn5n4)cc(=O)n3c2)CC1 [SMN-C3]
blood brain barrier (BBB) crossing [2]: efficiently crossed the blood brain barrier
SMN protein levels compared to vehicle [2]: increased SMN protein levels in both brain and muscle tissues

Molecule: CCN1CCN(c2ccc3cc(-c4cn5cc(C)nc(C)c5n4)c(=O)oc3c2)C[C@@H]1C [SMN-C2]
blood brain barrier (BBB) crossing [2]: efficiently crossed the blood brain barrier
SMN protein levels compared to vehicle [2]: increased SMN protein levels in both brain and muscle tissues

Molecule: CC1(C)CC(Oc2ccc(-c3ccc(-c4cn[nH]c4)cc3O)nn2)CC(C)(C)N1 [LMI070]
preclinical toxicity findings [3]: injuries to the peripheral nerves and spinal cord, testes, and blood vessels in the kidney

binding to mature GDF-8 (mature GDF-8): does not bind
accumulation of latent myostatin evident by (latent myostatin [5]; serum): ≤ 8 days
onset of significant target engagement in circulation (latent myostatin [6]): within four hours
onset of significant target engagement in muscle (latent myostatin [6]): within two days
target engagement at 56 days post-dosing (latent myostatin [6]): no longer observed
target engagement sustained out to (latent myostatin [6]): 29 days post dose
inhibition of mature myostatin signaling (mature myostatin): did not inhibit
EC50 in proMyostatin activation assay, the two antibodies compared (mouse proMyostatin): similar
binding to Activin A (Activin A): no detectable binding
release of mature myostatin, measured by luciferase expression (proMyostatin [8]): inhibited release of mature myostatin
binding to mature BMP9 (mature BMP9): no detectable binding
binding to mature BMP10 (mature BMP10): no detectable binding
binding to mature TGFβ1 (mature TGFβ1): no detectable binding
Kd (murine proMyostatin): 8.35 nM
EC50 in proMyostatin activation assay, the two antibodies compared (proMyostatin [10]): similar
Molecule: SRK-015: fully human monoclonal antibody optimized from SRK-015P; binds pro/latent myostatin and inhibits release of mature growth factor
AUClast ([4]; 3 mg/kg weekly for 8 weeks): 60799 hr▪ng/ml
Cmax ([4]; 3 mg/kg weekly for 8 weeks): 243 ng/mL
Tmax ([4]; 3 mg/kg weekly for 8 weeks): 51 h
T1/2 ([4]; 3 mg/kg weekly for 8 weeks): 12.4 h
AUClast ([4]; 30 mg/kg weekly for 8 weeks): 1070638 hr▪ng/ml
Cmax ([4]; 30 mg/kg weekly for 8 weeks): 2648 ng/mL
Tmax ([4]; 30 mg/kg weekly for 8 weeks): 15 h
T1/2 ([4]; 30 mg/kg weekly for 8 weeks): 22.2 h
target engagement in serum (latent myostatin [5]): engaged latent myostatin at both doses tested
muscle atrophy under dexamethasone ([1]; single 20 mg/kg dose, throughout the study): prevented muscle atrophy
Biceps brachii weight increase relative to vehicle control (cynomolgus monkeys; [12]): 18%
Gastrocnemius weight increase relative to vehicle control (cynomolgus monkeys; [12]): 21%
Biceps brachii weight increase relative to vehicle control (cynomolgus monkeys; [13]): 25%
Gastrocnemius weight increase relative to vehicle control (cynomolgus monkeys; [13]): 23%
lean mass relative to IgG control (scid mice): significant increase in lean mass
increase in muscle mass versus IgG control (healthy male mice): 17.5%
half-life [7]: ~487 h
effect in protease activity assay with proGDF11 (proGDF11): no effect
tolloid-mediated cleavage of latent myostatin (latent myostatin [9]): inhibited the second (tolloid-mediated) proteolysis step
binding to GDF11 (GDF11): does not bind; also recorded: no detectable binding

Molecule: nusinersen
patients not attaining at least 3-point HFMSE improvement (Type II SMA patients; in vivo): 43%
HFMSE score increase relative to placebo group (Type II SMA patients): 5.9 points
HFMSE score increase relative to placebo group (Type II SMA patients; listed as Nusinersen): less than 6 points
compound muscle action potential (CMAP) amplitudes (SMA patients): improvements
treated patients able to sit unaided ([11]; Type I patients): five of 81
patients reported to be non-responders ([11]; infantile-onset SMA (type I)): 60%
treated patients with improvements in motor milestones (Hammersmith Infant Neurological Examination) ([11]; interim analysis, 0% placebo): 41%

Molecule: CCc1nc(C)cn2nc(-c3cc(=O)n4cc(C5CCN(C)CC5)cc(C)c4n3)cc12 [RG7800]
blood brain barrier (BBB) crossing [2]: efficiently crossed the blood brain barrier
SMN protein levels compared to vehicle [2]: increased SMN protein levels in both brain and muscle tissues
